The record followed here is ChEMBL document CHEMBL4325916, “Isoform selective PLD inhibition by novel, chiral 2,8-diazaspiro[4.5]decan-1-one derivatives” (Bioorg Med Chem Lett, 2018).

Series [1] can be described thus: Fraction unbound in human plasma. It counts as ADME, cell-free.
Series [2] is described as follows: Fraction unbound in rat plasma. Format: ADME, cell-free.
A short description of series [3]: Fraction unbound in rat brain. Format: ADME, tissue-based.
The target in series [4] is T1, Phospholipase D2 (Homo sapiens, UniProt O14939).
T1 sequence (O14939 whole entry): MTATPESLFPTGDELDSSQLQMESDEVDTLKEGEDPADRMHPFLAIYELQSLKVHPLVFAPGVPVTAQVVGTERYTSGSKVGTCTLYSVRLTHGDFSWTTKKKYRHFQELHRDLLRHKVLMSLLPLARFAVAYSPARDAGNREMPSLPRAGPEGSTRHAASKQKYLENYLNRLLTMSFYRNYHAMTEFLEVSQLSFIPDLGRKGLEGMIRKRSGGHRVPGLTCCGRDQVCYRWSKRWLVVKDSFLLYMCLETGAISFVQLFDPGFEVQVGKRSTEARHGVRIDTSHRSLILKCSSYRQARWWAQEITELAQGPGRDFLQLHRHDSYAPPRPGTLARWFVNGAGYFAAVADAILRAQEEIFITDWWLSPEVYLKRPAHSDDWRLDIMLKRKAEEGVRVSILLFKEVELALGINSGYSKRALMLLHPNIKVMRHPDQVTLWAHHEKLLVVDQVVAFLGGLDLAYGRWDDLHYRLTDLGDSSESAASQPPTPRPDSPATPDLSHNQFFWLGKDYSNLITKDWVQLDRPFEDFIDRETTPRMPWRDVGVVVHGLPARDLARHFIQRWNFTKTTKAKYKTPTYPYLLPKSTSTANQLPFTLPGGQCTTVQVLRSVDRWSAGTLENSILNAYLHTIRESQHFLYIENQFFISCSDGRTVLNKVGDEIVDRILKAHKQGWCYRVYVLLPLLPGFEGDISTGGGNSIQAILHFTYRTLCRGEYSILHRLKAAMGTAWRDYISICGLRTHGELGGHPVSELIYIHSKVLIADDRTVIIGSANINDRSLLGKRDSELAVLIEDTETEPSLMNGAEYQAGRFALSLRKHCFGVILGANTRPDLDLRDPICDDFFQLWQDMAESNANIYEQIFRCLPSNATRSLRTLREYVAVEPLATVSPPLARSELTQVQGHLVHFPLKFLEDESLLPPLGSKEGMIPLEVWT
Description: Inhibition of PLD2 (unknown origin)
The species named for series [5] is Homo sapiens. The series is described as follows: Selectivity ratio of IC50 for […] (unknown origin) to IC50 for […] (unknown origin).
Series [6] concerns the target T2, Phospholipase D1 (Homo sapiens, UniProt Q13393).
T2 sequence (Q13393 whole entry): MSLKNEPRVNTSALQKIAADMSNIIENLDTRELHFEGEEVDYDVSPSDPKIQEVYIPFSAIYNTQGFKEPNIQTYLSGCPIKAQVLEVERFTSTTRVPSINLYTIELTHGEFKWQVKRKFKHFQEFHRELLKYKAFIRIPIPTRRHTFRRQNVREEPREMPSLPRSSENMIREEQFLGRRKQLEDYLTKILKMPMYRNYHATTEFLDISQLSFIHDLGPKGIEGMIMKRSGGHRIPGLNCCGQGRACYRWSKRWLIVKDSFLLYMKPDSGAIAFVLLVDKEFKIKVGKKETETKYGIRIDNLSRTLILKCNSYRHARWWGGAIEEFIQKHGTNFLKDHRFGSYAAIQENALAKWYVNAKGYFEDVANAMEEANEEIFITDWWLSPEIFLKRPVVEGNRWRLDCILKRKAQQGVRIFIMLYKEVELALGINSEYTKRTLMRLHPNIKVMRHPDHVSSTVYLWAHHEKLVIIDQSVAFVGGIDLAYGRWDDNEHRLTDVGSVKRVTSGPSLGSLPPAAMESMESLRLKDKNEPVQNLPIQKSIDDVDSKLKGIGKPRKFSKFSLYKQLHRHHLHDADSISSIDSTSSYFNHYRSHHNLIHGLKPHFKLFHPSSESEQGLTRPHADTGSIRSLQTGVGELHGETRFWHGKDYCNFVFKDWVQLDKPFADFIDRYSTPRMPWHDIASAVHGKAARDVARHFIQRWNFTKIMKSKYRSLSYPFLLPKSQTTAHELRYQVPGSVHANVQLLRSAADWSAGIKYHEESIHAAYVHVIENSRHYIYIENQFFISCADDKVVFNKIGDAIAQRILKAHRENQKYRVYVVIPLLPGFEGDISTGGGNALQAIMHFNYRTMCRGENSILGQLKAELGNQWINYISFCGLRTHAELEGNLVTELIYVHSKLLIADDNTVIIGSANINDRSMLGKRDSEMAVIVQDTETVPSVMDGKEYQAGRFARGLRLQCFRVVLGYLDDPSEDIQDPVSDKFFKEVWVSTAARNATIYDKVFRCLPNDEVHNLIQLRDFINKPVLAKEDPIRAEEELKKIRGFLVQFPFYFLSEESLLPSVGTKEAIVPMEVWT
Description: Inhibition of PLD1 (unknown origin)

Series [7] addresses T2, Phospholipase D1. Put plainly: Inhibition of PLD1 in human Calu1 cells. It counts as cell-based.
Series [8] concerns the target T1, Phospholipase D2. The series is described as follows: Inhibition of GFP-fused PLD2 (unknown origin) expressed in HEK293 cells by cellular assay. It counts as cell-based.
Series [9] is described as follows: […] clearance in rat at […], iv administered as cassette dose. It counts as ADME, organism-based. Particulars: in vivo.
Series [10] can be described thus: Half life in rat at […], iv administered as cassette dose. Format: ADME, organism-based. Particulars: in vivo.
Series [11] is described as follows: Volume of distribution at steady state in rat at […], iv administered as cassette dose. It counts as ADME, organism-based. Particulars: in vivo, read-out: Vdss.

For the molecule `O=C(NCCN1CCC2(CC1)C(O)=NC[C@H]2c1ccc(F)cc1)c1cnc2ccccc2c1`, the figures for the Fu in series [1], in [2] and in series [3] were 12.2%, 31.4% and 2.6%, respectively.
Consider `O=C(NCCN1CCC2(CC1)C(=O)NCN2Cc1cccnc1)c1ccc2ccccc2c1`, for which the IC50 in series [4] is 360 nM; in series [6] it was more than 30000 nM. Further, in series [5], the Ratio IC50 is more than 80.
In the case of `C[C@@H](CN1CCC2(CC1)C(=O)NC[C@H]2c1ccc(F)cc1)NC(=O)c1cc2ccccc2[nH]1`, the figures for the Fu in series [1], in series [2] and in [3] were 13.6%, 13% and 0.4%, respectively. Also, the IC50 in series [7] worked out at 1 nM; in series [8], 12 nM.
Turning to `O=C(NCCN1CCC2(CC1)C(O)=NC[C@H]2c1ccc(F)cc1)c1ccc(F)cc1`, the CLH in [9] stood at 250 mL/min/kg. Moreover, the Fu in [1] amounted to 10.8%; in series [2], 24.6%; in [3] it was 2.7%. Besides, the half-life in series [10] was 3.2 h. The Vd in series [11] came out at 56 L/kg.
As for `O=C(NCCN1CCC2(CC1)C(=O)NC[C@@H]2c1ccc(F)cc1)c1cc2ccccc2[nH]1`, the IC50 in series [7] stood at 320 nM; in series [8], 43 nM.
The like results for `C[C@@H](CN1CCC2(CC1)C(=O)NC[C@H]2c1ccc(F)cc1)NC(=O)C#Cc1ccccc1` were, in that order, 16 nM and 150 nM.
Consider `C[C@@H](CN1CCC2(CC1)C(=O)NC[C@H]2c1ccc(F)cc1)NC(=O)c1ccc(F)cc1`, for which the IC50 in series [7] was found to be 250 nM; in series [8], 210 nM.
Take `C[C@@H](CN1CCC2(CC1)C(=O)NC[C@@H]2c1ccc(F)cc1)NC(=O)c1cc2ccccc2[nH]1`: the figures for the IC50 in series [7] and in series [8] were 16 nM and 140 nM, respectively.
Regarding `C[C@@H](CN1CCC2(CC1)C(=O)NC[C@H]2c1ccc(F)cc1)NC(=O)c1ccc2ccccc2c1`, the Fu in series [1] was determined as 4.5%; in series [2], 6.1%; in series [3], 0.3%. For the same molecule, the values for the IC50 in series [7] and in [8] were 820 nM and 26 nM, respectively.
`O=C(C#Cc1ccccc1)NCCN1CCC2(CC1)C(=O)NC[C@H]2c1ccc(F)cc1`: the Fu was found to be 13.8% in [1], 16% in series [2] and 1.3% in series [3]. For the same molecule, the IC50 in series [7] worked out at 1200 nM; in series [8], 70 nM.
With `C[C@@H](CN1CCC2(CC1)C(=O)NC[C@@H]2c1ccc(F)cc1)NC(=O)C#Cc1ccccc1`, the figures for the IC50 in series [7] and in [8] were 320 nM and 4000 nM, respectively.
As for `C[C@@H](CN1CCC2(CC1)C(=O)NC[C@@H]2c1ccc(F)cc1)NC(=O)c1ccc(F)cc1`, the IC50 in series [7] amounted to 1700 nM; in [8], 2800 nM.
In the case of `O=C(NCCN1CCC2(CC1)C(=O)NC[C@H]2c1ccc(F)cc1)c1cc2ccccc2[nH]1`, in series [9], the CLH was determined as 340 mL/min/kg. Also, the Fu was 12.4% in series [1], 19.8% in [2] and 0.4% in series [3]. This molecule also had a half-life in series [10] of 3.63 h. For the same molecule, the Vd in series [11] amounted to 80 L/kg. For the same molecule, the values for the IC50 in series [7] and in series [8] were 21 nM and 2.5 nM, respectively.
As to `O=C(C#Cc1ccccc1)NCCN1CCC2(CC1)C(=O)NC[C@@H]2c1ccc(F)cc1`, the IC50 in [7] worked out at 6400 nM; in series [8], 810 nM.

As usually defined, the IC50 is the concentration needed to halve the response being measured. Higher therefore signals weaker potency. The term half-life denotes the time in which the quantity being followed falls by half. Lower therefore signals rapid decline.
